Test results reported in patent publication US10555989B2, “Treatment of learning disabilities and other neurological disorders with SK channel inhibitor(s)” (priority 2015, dated 2020).

Assays:
CD-1 mice = test system: CD-1 mice
Procedure: Pregnant mice CD-1 mice purchased from Charles River Company and bred under a light-dark cycle at a constant temperature were injected i.p. with 2 g/kg with either PBS (control) or ethanol (EtOH) thus exposing fetal mice in utero to PBS or EtOH. Thirty days after mice were born (day P30) motor skills of the control and EtOH-treated groups were compared using Rotarod test. The treatment timeline for the mice is shown in FIG. 1A and the Rotarod test is depicted by FIG. 1B.
For assessment of motor learning behavior, mice (P30) were carried out using an accelerating Rotarod apparatus (TSE Instruments) over 3 repeated trials (5 minutes per trial)/day for 2 consecutive days before testing phase. The Rotarod testing involves placing the mice on a rotating bar and determining the length of time that they can retain their balance as the rate of rotation is increased (max 80 rpm, for 5 min). On the day of testing, mice were kept in their home cages and acclimated to the testing room for at least 15 min. 2 min acclimation session at 2 rpm one time prior to the test phase was performed. Testing phase consisted of 3 trials per day separated by 30 min each for 2 consecutive days (total 6 trials). Each trail was terminated when mouse fell off or reached maximum 5 min (maximum speed). During the trials, mice that moved 180° (same direction of rotation) were gently turned around, face forward, to opposite direction of rotation. The latency to fall from a rotating rod was scored automatically with infrared sensors in a Rotamex 5 rotarod (Columbus Inst.; Columbus, Ohio).

[1] = test system: heat shock factor 1 (Hsf1); conditions: alcohol regimen i.p. at E16.5 and E17.5
Procedure: In utero electroporation was carried out as described [1-3]. Briefly, the plasmid for Flippase-FRT based reporter of heat shock factor 1 (Hsf1) activation was co-electroporated with EGFP-f plasmid (Addgene, 2 μg/μl each).
By using this method, the cells that had robust prenatal Hsf1 activation were labeled by RFP reporter.
The RFP reporter expression was induced upon Hsf1 activation in a subset of GFP-positive neurons. […] Pups were screened using an epifluorescence stereomicroscope at postnatal days (P1) that had GFP-positive cells in their primary motor cortex. Further experiments were performed on these mice i.e., single cell sampling, electrophysiology study, immunohistochemistry (IHC) and neurons morphology at P30.

KCNN2 = biological target: T1, KCNN2 (Mus musculus, UniProt P58390); assay: Electrophysiology: tamapin-sensitive medium afterhyperpolarization (mAHP) in primary motor cortex slices; type: cell-based, mice; conditions: Tamapin 100 nM
T1 construct: Coronal slices containing primary motor cortex (300 μm) were prepared; from tissue; host or cells: acute coronal slices of primary motor cortex from P30 mice, layer II/III pyramidal neurons
Procedure: Electrophysiology: Coronal slices containing primary motor cortex (300 μm) were prepared as described above by using a vibrating blade microtome (Leica VT 1000S) from DNA (HSE-FLP0, CAG GFP and RFP FRT, 2 μg/μl each) electroporated mice (P30) brain. The recording chamber was perfused with oxygenated (95% O2/5% CO2) aCSF at 2 ml/min at room temperature. DNA electroporated primary motor cortex neurons were visualized through an infrared charge-coupled device (CCD) camera (C2741-79; Hamamatsu Photonics, Hamamatsu, Japan). The electrodes were filled with internal solution containing (in mM) 130 […], 10 KCl, 10 HEPES, 10 EGTA, 2 MgCl2, 2 Na2-ATP and 0.3 Na-GTP (pH 7.3; electrode resistances: 4-6 MΩ). Cells were recorded in the whole-cell voltage or current clamp mode with a holding potential of −60 mV using a patch-clamp amplifier (700B; Molecular Devices, Sunnyvale, Calif. USA). Series resistance was compensated. The output of the amplifier was digitized using an A/D converter board (Digidata 1322; Molecular Devices) with a sampling rate of 10 kHz, and recorded on a hard disk by data acquisition software (pCLAMP10; Molecular Devices). For the mAHP, cells were held at −60 mV under current clamp mode and action potentials were evoked through injecting positive current. LTP was induced electrically under voltage clamp mode by applying single 1-sec train (100 Hz, 100 μA, Isoflexm, A.M.P.I; CPI, Carl Pisaturo Standord University).
Example 4 KCNN2 Antagonist, Tamapin (100 nM), Affects the Medium Duration Afterhyperpolarization (mAHP) in Reporter-Positive Pyramidal Neurons in M1
(FIGS. 4A-4C, panels a4-c4) Left panels: Cumulative distributions of the amplitude of action potential and the mean amplitude of action potentials (insets)recorded from control (black)- and Tamapin (red)-stimulated neurons. Right panels: Firing frequencies, showing significant increase in RFP^+ neurons. *P=0.016 by Student's t-test.

[2] = test system: mice exposed to EtOH prenatally; assay: Accelerating Rotarod motor learning before and after Tamapin injection (i.p.) in mice exposed to EtOH prenatally; type: in vivo, CD-1 mice
Procedure: Mice were tested using the Rotarod test described above on postnatal days 30, 31, 32 and 33 days as shown by the timeline in FIG. 5A. Thus, the mice were tested for the motor learning before and after the Tamapin injection (i.p.).

SK2 channels = conditions: cited from earlier work

T1 sequence (P58390 266-839): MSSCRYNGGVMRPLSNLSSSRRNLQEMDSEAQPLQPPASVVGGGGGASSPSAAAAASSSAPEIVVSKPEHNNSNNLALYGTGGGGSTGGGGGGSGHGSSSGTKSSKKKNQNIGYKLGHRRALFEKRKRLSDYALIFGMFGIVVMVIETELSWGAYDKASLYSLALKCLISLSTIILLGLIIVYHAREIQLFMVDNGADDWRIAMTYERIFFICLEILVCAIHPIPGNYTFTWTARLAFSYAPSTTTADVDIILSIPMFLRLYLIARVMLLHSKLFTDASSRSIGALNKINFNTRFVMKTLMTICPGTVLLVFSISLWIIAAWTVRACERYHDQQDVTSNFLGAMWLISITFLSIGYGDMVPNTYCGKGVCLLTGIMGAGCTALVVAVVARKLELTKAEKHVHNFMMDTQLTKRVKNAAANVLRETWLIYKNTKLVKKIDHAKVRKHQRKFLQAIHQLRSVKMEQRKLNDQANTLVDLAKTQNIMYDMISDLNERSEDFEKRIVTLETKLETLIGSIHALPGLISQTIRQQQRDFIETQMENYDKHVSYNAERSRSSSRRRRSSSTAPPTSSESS

| Compound | learning and motor skills (CD-1 mice; exposure of fetal mice in utero vs control, summary of Example 1) | initial motor coordination (terminal speed at trial 1, FIG. 1D) (CD-1 mice; in utero EtOH vs PBS, P30, P=0.579) | learning rates (learning index, Rotarod, FIG. 1C) (CD-1 mice; in utero exposure, 2 g/kg i.p. to pregnant mice, P30, males and females, vs PBS) | mean Rotarod terminal speed of control mice relative to EtOH-treated mice (FIG. 1F) (CD-1 mice; trial 1 and trial 6) | effects in brain structure [1] | firing frequency (KCNN2; EtOH-exposed RFP+ neurons, P=0.016) | medium afterhyperpolarization (mAHP) (KCNN2; EtOH-exposed RFP+ pyramidal neurons, M1, P30 slices, P=0.009) | effects on mAHP and firing in RFP- neurons (KCNN2; RFP- neurons in PBS- or EtOH-exposed brains) | initial motor coordination (FIG. 5C) ([2]; EtOH-exposed mice) | motor learning (latency to fall, FIG. 5B) ([2]; EtOH-exposed mice, trial 7-12, Tamapin i.p. vs vehicle, P=0.0001) | latency to fall at the first trial followed by injection (trial 7), vehicle vs Tamapin ([2]; PBS-exposed and EtOH-exposed groups, P=0.302 and 0.960) | initial motor coordination (FIG. 5F) ([2]; PBS-exposed mice) | effects on motor learning (FIG. 5G) ([2]; PBS-exposed mice, trial 7-12, P=0.596) | motor learning / learning rate (FIG. 5D) ([2]; Tamapin-injected EtOH-exposed mice, trial 7-12, P=0.015) | effects of fetal exposure to EtOH ([2]; summary of Example 5) | rank order of affinity for SK channels (SK2 channels; functional property of native tamapin) | SK channel selectivity (SK2 channels; known property) |
| --- | --- | --- | --- | --- | --- | --- | --- | --- | --- | --- | --- | --- | --- | --- | --- | --- | --- |
| CCO [EtOH, ethanol] | negatively affects | not affected | decreased | significantly higher | did not induce any obvious effects |  |  |  |  |  |  |  |  |  |  |  |  |
| AFCNLRRCELSCRSLGLLGKCIGEECKCVPY [Tamapin] |  |  |  |  |  | increased the firing frequency | reduced the mAHP | no significant effects | not affected | improved the motor learning | similar | not affected | No effects | rescued | significantly reversed | SK2 channel>SK3>SK1>SK4 | selective blocker of SK2 channels |
